# Measurements published in patent US9302999B2, “Substituted triazoles as herbicides” (E. I. DU PONT DE NEMOURS AND COMPANY, priority 2012, dated 2016).
# Columns and labels:
# corn (Zea mays) = test: Test F pre-/postemergence: corn; format: in vivo; details: Postemergence, scale 0 to 100
# Excerpt: (§1) Seeds of plant species selected from corn (Zea mays), soybean (Glycine max), velvetleaf (Abutilon theophrasti), lambsquarters (Chenopodium album), poinsettia, wild (wild poinsettia, Euphorbia heterophylla), pigweed, palmer (palmer pigweed, Amaranthus palmeri), waterhemp (common waterhemp, Amaranthus rudis), surinam grass (Brachiaria decumbens), crabgrass, Brazil (Brazilian crabgrass, Digitaria horizontalis), panicum, fall (fall panicum Panicum dichotomiflorum), crabgrass, large (large crabgrass, Digitaria sanguinalis), foxtail, giant (giant foxtail, Setaria faberii), foxtail, green (green foxtail Setaria viridis), goosegrass (Eleusine indica), ragweed (common ragweed, Ambrosia elatior), barnyardgrass (Echinochloa crus-galli), sandbur (southern sandbur, Cenchrus echinatus), arrowleaf sida (Sida rhombifolia), ryegrass, Italian (Italian ryegrass, Lolium multiflorum), dayflower, VA (Virginia (VA) dayflower, Commelina virginica), field bindweed (Convolvulus arvensis), cocklebur (common cocklebur, Xanthium strumarium), morningglory (Ipomoea coccinea), nightshade (eastern black nightshade, Solanum ptycanthum), kochia (Kochia scoparia), nutsedge, yellow (yellow nutsedge, Cyperus esculentus), johnsongrass (Sorghum halepense), smartweed (ladysthumb smartweed, Polygonum persicaria), and beggarticks (hairy beggarticks, Bidens pilosa), were planted into a silt loam soil and treated preemergence with test chemicals formulated in a non-phytotoxic solvent mixture which included a surfactant. At the same time, plants selected from these crop and weed species and also pigweed (Amaranthus retroflexus), waterhemp_RES1 (ALS/Triazine resistant common waterhemp, Amaranthus rudis) and waterhemp_RES2 (ALS/HPPD resistant common waterhemp, Amaranthus rudis) were planted in pots containing a planting medium comprising spaghnum peat moss, vermiculite, wetting agent and starter nutrients treated with postemergence applications of some of the test chemicals formulated in the same manner. Plants ranged in height from 2 to 18 cm for postemergence treatments (1- to 4-leaf stage).
# (§2) Treated plants and controls were maintained in a greenhouse for 14 to 21 days, after which time all species were compared to controls and visually evaluated. Plant response ratings, summarized in Table E, are based on a scale of 0 to 100 where 0 is no effect and 100 is complete control. A dash (-) response means no test result.
# [1] = tested on: ryegrass, Italian (Italian ryegrass, Lolium multiflorum); test: Test F pre-/postemergence: ryegrass, Italian; format: in vivo; details: Postemergence, scale 0 to 100
# Excerpt: as §1, §2
smiles,measurement,setting,value
Cc1nn(-c2ccnc(Cl)c2)nc1Cc1ccnc(C(F)(F)F)c1 [Compound 141],"Plant response rating, Corn",corn (Zea mays); 8 g ai/ha,15
same,"Plant response rating, Corn",corn (Zea mays); 16 g ai/ha,15
same,"Plant response rating, Corn",corn (Zea mays); 31 g ai/ha,20
same,"Plant response rating, Corn",corn (Zea mays); 62 g ai/ha,20
same,"Plant response rating, Corn",corn (Zea mays); 125 g ai/ha,30
same,"Plant response rating, Ryegrass, Italian",[1]; 8 g ai/ha,10
same,"Plant response rating, Ryegrass, Italian",[1]; 16 g ai/ha,10
same,"Plant response rating, Ryegrass, Italian",[1]; 31 g ai/ha,15
same,"Plant response rating, Ryegrass, Italian",[1]; 62 g ai/ha,25
same,"Plant response rating, Ryegrass, Italian",[1]; 125 g ai/ha,40
